Experimental data published in paper PMC6117563, “A structurally derived model of subunit‐dependent NMDA receptor function” (The Journal of Physiology, 2018).

Experiments:
GluN1/GluN2A receptors = molecular target: T1, GluN1/GluN2A receptors (Rattus norvegicus, UniProt Q00959); test: Least squares fitting of kinetic model to macroscopic currents from excised outside‐out patches (1 mM or 3 μM glutamate for 1 s); assay type: cell-based; conditions: macroscopic fit
T1 construct: expressed in transfected cells; host or cells: HEK 293 cells
T1 sequence (Q00959 23-1464, other chains not shown): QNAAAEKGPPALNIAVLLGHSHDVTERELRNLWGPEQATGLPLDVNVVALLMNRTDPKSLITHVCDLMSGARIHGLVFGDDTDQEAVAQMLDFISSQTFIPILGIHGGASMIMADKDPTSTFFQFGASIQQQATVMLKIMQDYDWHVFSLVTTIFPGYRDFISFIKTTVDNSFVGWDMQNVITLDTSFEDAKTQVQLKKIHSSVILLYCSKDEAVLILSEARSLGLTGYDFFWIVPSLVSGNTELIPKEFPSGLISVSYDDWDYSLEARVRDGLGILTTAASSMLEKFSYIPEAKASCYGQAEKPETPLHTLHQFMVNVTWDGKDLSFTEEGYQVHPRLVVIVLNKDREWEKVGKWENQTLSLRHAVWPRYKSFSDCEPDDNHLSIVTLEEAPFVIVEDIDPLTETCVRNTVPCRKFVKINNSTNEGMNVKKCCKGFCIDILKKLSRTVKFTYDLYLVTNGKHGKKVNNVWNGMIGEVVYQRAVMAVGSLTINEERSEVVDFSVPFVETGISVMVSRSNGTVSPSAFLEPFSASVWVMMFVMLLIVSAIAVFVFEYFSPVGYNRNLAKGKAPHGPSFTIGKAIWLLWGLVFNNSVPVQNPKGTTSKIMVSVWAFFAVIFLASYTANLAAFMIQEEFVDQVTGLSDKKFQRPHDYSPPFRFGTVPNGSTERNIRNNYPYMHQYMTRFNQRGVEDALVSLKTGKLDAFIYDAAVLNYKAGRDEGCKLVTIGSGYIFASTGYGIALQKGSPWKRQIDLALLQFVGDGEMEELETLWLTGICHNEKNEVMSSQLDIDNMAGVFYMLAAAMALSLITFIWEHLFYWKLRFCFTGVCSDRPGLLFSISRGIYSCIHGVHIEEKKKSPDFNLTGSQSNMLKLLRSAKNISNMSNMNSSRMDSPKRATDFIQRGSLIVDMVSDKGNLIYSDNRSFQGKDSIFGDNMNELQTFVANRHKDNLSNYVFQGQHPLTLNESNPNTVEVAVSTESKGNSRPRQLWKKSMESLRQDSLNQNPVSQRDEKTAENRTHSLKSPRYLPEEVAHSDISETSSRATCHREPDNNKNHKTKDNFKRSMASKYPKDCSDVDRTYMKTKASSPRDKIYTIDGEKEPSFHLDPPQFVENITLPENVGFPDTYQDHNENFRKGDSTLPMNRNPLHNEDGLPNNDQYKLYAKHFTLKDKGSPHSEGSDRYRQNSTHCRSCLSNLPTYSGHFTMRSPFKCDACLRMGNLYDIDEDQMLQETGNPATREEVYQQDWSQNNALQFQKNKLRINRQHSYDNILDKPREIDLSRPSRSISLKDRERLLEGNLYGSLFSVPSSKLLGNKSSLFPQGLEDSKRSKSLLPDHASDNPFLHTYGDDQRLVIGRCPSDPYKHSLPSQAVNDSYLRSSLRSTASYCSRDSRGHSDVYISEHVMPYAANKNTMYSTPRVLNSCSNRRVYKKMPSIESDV
Protocol: (§1) Cells were transfected using FuGENE 6 (Roche Diagnostics, Basel, Switzerland) with cDNA encoding green fluorescent protein (GFP), wild type GluN1‐1a (GenBank accession numbers U11418 and U08261; hereafter GluN1), and GluN2A (D13211) and GluN2B (U11419) at a ratio of 5:1:1 (GFP:GluN1:GluN2); total cDNA was 0.2 mg ml^−1. All rat NMDA receptor subunit cDNAs were provided by Drs Heinemann (Salk Institute) and Nakanishi (Kyoto University). After transfection, the HEK cells were incubated for 12–24 h (timed to optimize observation of patches with a single active channel) in media supplemented with D,L‐2‐amino‐5‐phosphonovalerate (DL‐AP‐5) and 7‐chlorokynurenic acid (both at 200 μM) prior to patch clamp recordings.

[1] = molecular target: T2, GluN1/GluN2AC1/GluN2BC2 triheteromeric receptors (Rattus norvegicus, UniProt P35439+Q00959+Q00960, A876H/F846L/G856D/H848F/K857R/M851T/M860L/Q845K/V861L); test: Whole cell current recordings, ifenprodil block of peak current response to glutamate plus glycine in transfected HEK cells; assay type: cell-based; conditions: 3 μM ifenprodil
T2 construct: expressed in transfected cells; host or cells: HEK 293 cells
T2 sequence (Q00960+Q00959 fused with the stated changes, other chains not shown): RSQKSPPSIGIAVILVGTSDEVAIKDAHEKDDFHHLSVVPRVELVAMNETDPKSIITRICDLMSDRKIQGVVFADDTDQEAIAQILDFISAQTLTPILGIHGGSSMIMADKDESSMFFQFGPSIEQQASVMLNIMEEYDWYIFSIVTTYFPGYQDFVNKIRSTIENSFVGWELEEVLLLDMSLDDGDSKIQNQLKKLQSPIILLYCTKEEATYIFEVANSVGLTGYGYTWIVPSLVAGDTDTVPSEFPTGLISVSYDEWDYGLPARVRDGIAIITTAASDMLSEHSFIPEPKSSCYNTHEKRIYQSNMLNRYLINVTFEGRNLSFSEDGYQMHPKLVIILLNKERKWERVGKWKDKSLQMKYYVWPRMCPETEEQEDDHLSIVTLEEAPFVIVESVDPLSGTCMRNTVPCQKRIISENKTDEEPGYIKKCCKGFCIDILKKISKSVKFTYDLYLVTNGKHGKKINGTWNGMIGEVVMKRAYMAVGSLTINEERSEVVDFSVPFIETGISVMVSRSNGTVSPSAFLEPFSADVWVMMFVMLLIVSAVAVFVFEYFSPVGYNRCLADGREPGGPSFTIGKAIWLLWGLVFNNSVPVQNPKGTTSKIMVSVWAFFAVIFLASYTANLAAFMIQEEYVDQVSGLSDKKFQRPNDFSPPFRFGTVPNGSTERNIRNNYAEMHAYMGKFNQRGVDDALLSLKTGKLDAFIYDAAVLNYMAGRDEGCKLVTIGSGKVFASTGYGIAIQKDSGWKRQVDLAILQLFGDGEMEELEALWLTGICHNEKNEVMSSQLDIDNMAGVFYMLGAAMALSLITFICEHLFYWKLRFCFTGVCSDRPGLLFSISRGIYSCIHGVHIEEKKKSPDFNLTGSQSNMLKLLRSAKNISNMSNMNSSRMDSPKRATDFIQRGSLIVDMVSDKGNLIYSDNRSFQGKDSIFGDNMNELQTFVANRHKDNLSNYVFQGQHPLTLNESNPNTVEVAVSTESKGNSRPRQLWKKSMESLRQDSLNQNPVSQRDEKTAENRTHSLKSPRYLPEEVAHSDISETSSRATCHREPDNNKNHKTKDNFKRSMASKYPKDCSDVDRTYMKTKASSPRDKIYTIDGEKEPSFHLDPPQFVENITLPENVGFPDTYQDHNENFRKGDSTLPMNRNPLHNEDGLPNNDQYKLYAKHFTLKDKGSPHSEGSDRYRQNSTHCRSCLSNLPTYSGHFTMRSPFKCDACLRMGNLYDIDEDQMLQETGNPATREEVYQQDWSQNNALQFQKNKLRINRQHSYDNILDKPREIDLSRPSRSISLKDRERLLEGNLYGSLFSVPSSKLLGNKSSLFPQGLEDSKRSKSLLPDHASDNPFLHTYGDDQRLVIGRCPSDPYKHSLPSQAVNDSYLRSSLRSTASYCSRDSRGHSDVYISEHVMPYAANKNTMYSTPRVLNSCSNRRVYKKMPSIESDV
Protocol: as §1
(§2) All GluN2 cDNAs used for whole cell current recordings encoded a fusion protein containing the GluN2A C‐terminal domain fused to coiled‐coil C1 and C2 peptide tags followed by an endoplasmic reticulum (ER) retention signal fused in frame to the C‐terminal. This allowed control of the stoichiometry of GluN2 in surface receptors, as previously described (Hansen et al. 2014). The vector containing GluN1 also independently expressed GFP and was provided by Dr Kasper Hansen (University of Montana). […]

[2] = molecular target: T2, GluN1/GluN2AC1/GluN2BC2 triheteromeric receptors; parameters: method as in Hatton & Paoletti, 2005; Hansen et al. 2014; conditions: 3 μM ifenprodil; ref Hatton & Paoletti, 2005; Hansen et al. 2014; cited from earlier work
[3] = system: diheteromeric GluN1/GluN2BC2 receptors; parameters: method as in Hatton & Paoletti, 2005; Hansen et al. 2014; conditions: 3 μM ifenprodil; ref Hatton & Paoletti, 2005; Hansen et al. 2014; cited from earlier work
[4] = system: GluN2AC1‐P552R/GluN2BC2‐P553R triheteromeric receptors; test: Whole cell current recordings, ifenprodil block of peak current in transfected HEK cells; assay type: cell-based, rat; conditions: 3 μM ifenprodil; n = 9
Protocol: as §1, §2

[5] = molecular target: T3, GluN2AC1‐P552R/GluN2BC2 triheteromeric receptors (Rattus norvegicus, UniProt P35439+Q00959+Q00960, A876H/F846L/G856D/H848F/K857R/M851T/M860L/Q845K/V861L); test: as above; assay type: cell-based; conditions: 3 μM ifenprodil; n = 9
T3 construct: expressed in transfected cells; host or cells: HEK 293 cells
T3 sequence (Q00960+Q00959 fused with the stated changes, other chains not shown): as above
Protocol: as §1, §2

[6] = model of Fig. A2 (opening only after all four pre‐gating steps)
[7] = model of Figs 5 and 6, saturating glycine (100 μM), pH 8.0

N[C@@H](CCC(=O)O)C(=O)O [glutamate]
glutamate association rate k +A (GluN1/GluN2A receptors; [6]): 1.3e+07 M⁻¹ s⁻¹
glutamate dissociation rate k −A (GluN1/GluN2A receptors; [6]): 483 s⁻¹
glutamate dissociation rate k −A (GluN1/GluN2A receptors; [7]): 65 s⁻¹
microscopic glutamate association rate k +A (GluN1/GluN2A receptors; [7]): 6.7e+06 M⁻¹ s⁻¹

CC(C(O)c1ccc(O)cc1)N1CCC(Cc2ccccc2)CC1 (stereo not drawn) [ifenprodil]
block of the current amplitude [1]: 38%
expected reduction of triheteromeric peak current [2]: ~30%
expected reduction of peak current [3]: ~90%
reduction of peak current [4]: 43 ± 6.1%
reduction of peak current [5]: 58 ± 5.5%
